Measurements reported in PubChem BioAssay (NCI).
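Tested at 5 concentrations; 48 h exposure; 96-well plates; endpoints linearly interpolated, else capped at highest concentration. TGI is the concentration that stops growth completely.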

How the values were obtained:
Experiment in all cases: growth of human tumour cells (NCI), 48 h
HCC-2998 colon = test system: HCC-2998 colon
SNB-75 CNS = test system: SNB-75 CNS
UACC-62 melanoma = test system: UACC-62 melanoma
TK-10 renal = test system: TK-10 renal
PC-3 prostate = test system: PC-3 prostate
MDA-N = test system: MDA-N
MCF7 breast = test system: MCF7 breast
786-0 renal = test system: 786-0 renal
OVCAR-8 ovarian = test system: OVCAR-8 ovarian
M14 melanoma = test system: M14 melanoma
HCT-15 colon = test system: HCT-15 colon
SN12C renal = test system: SN12C renal
A549 NSCLC = test system: A549 NSCLC
SK-MEL-5 melanoma = test system: SK-MEL-5 melanoma
NCI-H23 lung = test system: NCI-H23 lung
HS 578T breast = test system: HS 578T breast
T-47D breast = test system: T-47D breast
NCI/ADR-RES ovarian = test system: NCI/ADR-RES ovarian
K-562 leukemia = test system: K-562 leukemia
OVCAR-4 ovarian = test system: OVCAR-4 ovarian
SF-539 CNS = test system: SF-539 CNS
LOX IMVI melanoma = test system: LOX IMVI melanoma
MDA-MB-231 breast = test system: MDA-MB-231 breast
SF-268 CNS = test system: SF-268 CNS
SR leukemia = test system: SR leukemia
MOLT-4 leukemia = test system: MOLT-4 leukemia
KM12 colon = test system: KM12 colon
OVCAR-3 ovarian = test system: OVCAR-3 ovarian
HOP-92 NSCLC = test system: HOP-92 NSCLC
RXF 393 renal = test system: RXF 393 renal
OVCAR-5 ovarian = test system: OVCAR-5 ovarian
RPMI-8226 leukemia = test system: RPMI-8226 leukemia
SK-MEL-28 melanoma = test system: SK-MEL-28 melanoma
IGROV1 ovarian = test system: IGROV1 ovarian
COLO 205 colon = test system: COLO 205 colon
UACC-257 melanoma = test system: UACC-257 melanoma
SK-MEL-2 melanoma = test system: SK-MEL-2 melanoma
MDA-MB-435 = test system: MDA-MB-435
A498 renal = test system: A498 renal
NCI-H226 lung = test system: NCI-H226 lung
U251 CNS = test system: U251 CNS
HCT-116 colon = test system: HCT-116 colon
NCI-H460 lung = test system: NCI-H460 lung
MALME-3M melanoma = test system: MALME-3M melanoma
UO-31 renal = test system: UO-31 renal
SK-OV-3 ovarian = test system: SK-OV-3 ovarian
SW-620 colon = test system: SW-620 colon
BT-549 breast = test system: BT-549 breast
CCRF-CEM leukemia = test system: CCRF-CEM leukemia
EKVX NSCLC = test system: EKVX NSCLC
DU-145 prostate = test system: DU-145 prostate
HT29 colon = test system: HT29 colon
HOP-62 NSCLC = test system: HOP-62 NSCLC
SNB-19 CNS = test system: SNB-19 CNS
SF-295 CNS = test system: SF-295 CNS
ACHN renal = test system: ACHN renal
CAKI-1 renal = test system: CAKI-1 renal
NCI-H522 lung = test system: NCI-H522 lung
HL-60(TB) leukemia = test system: HL-60(TB) leukemia

With `CC(C)NC(=O)OCc1c2c(n(C)c1COC(=O)NC(C)C)-c1cc(Cl)c(Cl)cc1CC2` the TGI (HCC-2998 colon) was 32.7 µM, the TGI (SNB-75 CNS) was 81.7 µM and the TGI (UACC-62 melanoma) was greater than 100 µM. It also gave a TGI (TK-10 renal) of 84.5 µM, a TGI (PC-3 prostate) greater than 100 µM and a TGI (MDA-N) greater than 100 µM. For the same compound, the TGI (MCF7 breast) was 45.2 µM, the TGI (786-0 renal) was greater than 100 µM and the TGI (OVCAR-8 ovarian) was greater than 100 µM. The TGI (M14 melanoma) was 66.6 µM, the TGI (HCT-15 colon) was greater than 100 µM and the TGI (SN12C renal) was greater than 100 µM. The TGI (A549 NSCLC) was greater than 100 µM, the TGI (SK-MEL-5 melanoma) was greater than 100 µM and the TGI (NCI-H23 lung) was 87.9 µM. The TGI (HS 578T breast) was greater than 100 µM, the TGI (T-47D breast) was greater than 100 µM and the TGI (NCI/ADR-RES ovarian) was greater than 100 µM. For the same compound, the TGI (K-562 leukemia) was 41.6 µM, the TGI (OVCAR-4 ovarian) was greater than 100 µM and the TGI (SF-539 CNS) was greater than 100 µM. For the same compound, the TGI (LOX IMVI melanoma) was greater than 100 µM, the TGI (MDA-MB-231 breast) was 55.3 µM and the TGI (SF-268 CNS) was greater than 100 µM. For the same compound, the TGI (SR leukemia) was greater than 100 µM, the TGI (MOLT-4 leukemia) was 60.3 µM and the TGI (KM12 colon) was 81.7 µM. The TGI (OVCAR-3 ovarian) was 82.8 µM, the TGI (HOP-92 NSCLC) was 70.9 µM and the TGI (RXF 393 renal) was 94.8 µM. The TGI (OVCAR-5 ovarian) was greater than 100 µM, the TGI (RPMI-8226 leukemia) was 64.8 µM and the TGI (SK-MEL-28 melanoma) was greater than 100 µM. It also gave a TGI (IGROV1 ovarian) of 96 µM, a TGI (COLO 205 colon) of 73.6 µM and a TGI (UACC-257 melanoma) of 86.8 µM. It also gave a TGI (SK-MEL-2 melanoma) of 72.8 µM, a TGI (MDA-MB-435) greater than 100 µM and a TGI (A498 renal) of 18.7 µM. For the same compound, the TGI (NCI-H226 lung) was greater than 100 µM, the TGI (U251 CNS) was 40.6 µM and the TGI (HCT-116 colon) was 66.9 µM. It also gave a TGI (NCI-H460 lung) greater than 100 µM, a TGI (MALME-3M melanoma) greater than 100 µM and a TGI (UO-31 renal) greater than 100 µM. The TGI (SK-OV-3 ovarian) was greater than 100 µM, the TGI (SW-620 colon) was greater than 100 µM and the TGI (BT-549 breast) was greater than 100 µM. It also gave a TGI (CCRF-CEM leukemia) of 65.6 µM, a TGI (EKVX NSCLC) greater than 100 µM and a TGI (DU-145 prostate) greater than 100 µM. The TGI (HT29 colon) was greater than 100 µM, the TGI (HOP-62 NSCLC) was greater than 100 µM and the TGI (SNB-19 CNS) was greater than 100 µM. It also gave a TGI (SF-295 CNS) greater than 100 µM and a TGI (ACHN renal) greater than 100 µM.

Work on `O=C1C(=O)c2ccccc2C(O)=C1C(C1=C(O)c2ccccc2C(=O)C1=O)c1ccc(Cl)cc1` yielded a TGI (SNB-75 CNS) of 9.83 µM, a TGI (UACC-62 melanoma) of 23.5 µM and a TGI (TK-10 renal) of 28.2 µM. The TGI (PC-3 prostate) was 57.7 µM, the TGI (MDA-N) was 3.74 µM and the TGI (MCF7 breast) was 11.4 µM. It also gave a TGI (786-0 renal) of 11.2 µM, a TGI (OVCAR-8 ovarian) of 30.1 µM and a TGI (M14 melanoma) of 23.7 µM. The TGI (HCT-15 colon) was 32 µM, the TGI (SN12C renal) was 3.66 µM and the TGI (A549 NSCLC) was 42.2 µM. For the same compound, the TGI (SK-MEL-5 melanoma) was 19.9 µM, the TGI (NCI-H23 lung) was 27.8 µM and the TGI (HS 578T breast) was 66.4 µM. For the same compound, the TGI (T-47D breast) was greater than 57.7 µM, the TGI (NCI/ADR-RES ovarian) was greater than 77.5 µM and the TGI (K-562 leukemia) was 39.2 µM. For the same compound, the TGI (OVCAR-4 ovarian) was 18.6 µM, the TGI (SF-539 CNS) was 32.9 µM and the TGI (LOX IMVI melanoma) was 7.78 µM. It also gave a TGI (MDA-MB-231 breast) of 22.7 µM, a TGI (SF-268 CNS) of 59.8 µM and a TGI (SR leukemia) of 24.7 µM. It also gave a TGI (MOLT-4 leukemia) of 19.3 µM, a TGI (KM12 colon) of 25 µM and a TGI (OVCAR-3 ovarian) of 11.4 µM. The TGI (HOP-92 NSCLC) was 44.1 µM, the TGI (RXF 393 renal) was 18.4 µM and the TGI (OVCAR-5 ovarian) was 17.3 µM. The TGI (RPMI-8226 leukemia) was greater than 39.2 µM, the TGI (SK-MEL-28 melanoma) was 55.5 µM and the TGI (IGROV1 ovarian) was 27.2 µM. It also gave a TGI (CAKI-1 renal) of 23.8 µM, a TGI (COLO 205 colon) of 35.6 µM and a TGI (UACC-257 melanoma) of 17 µM. For the same compound, the TGI (SK-MEL-2 melanoma) was 24.1 µM, the TGI (MDA-MB-435) was 3.38 µM and the TGI (A498 renal) was 34 µM. For the same compound, the TGI (NCI-H226 lung) was 52.9 µM, the TGI (U251 CNS) was 16.3 µM and the TGI (HCT-116 colon) was 18.2 µM. The TGI (NCI-H460 lung) was 28.9 µM, the TGI (NCI-H522 lung) was 27.3 µM and the TGI (MALME-3M melanoma) was 12 µM. For the same compound, the TGI (UO-31 renal) was 24.5 µM, the TGI (SK-OV-3 ovarian) was 33.5 µM and the TGI (SW-620 colon) was greater than 73.7 µM. It also gave a TGI (BT-549 breast) of 32.7 µM, a TGI (HL-60(TB) leukemia) of 4.83 µM and a TGI (CCRF-CEM leukemia) greater than 46 µM. The TGI (EKVX NSCLC) was 32.1 µM, the TGI (DU-145 prostate) was 10.3 µM and the TGI (HT29 colon) was 20.9 µM. It also gave a TGI (HOP-62 NSCLC) of 13.1 µM, a TGI (SNB-19 CNS) of 41.8 µM and a TGI (SF-295 CNS) of 13.8 µM. It also gave a TGI (ACHN renal) of 17 µM.
